From publication PMC4052326, “Alterporriol-Type Dimers from the Mangrove Endophytic Fungus, Alternaria sp. (SK11), and Their MptpB Inhibitions” (Marine Drugs, 2014)

Molecular target: T1, Mycobacterium tuberculosis protein tyrosine phosphatase B (MptpB) (Mycobacterium tuberculosis, UniProt I6WXK4)
T1 construct: The full-length PTPB gene was amplified from genomic DNA of the Mtb H37Rv strain; His6 (N); made in house
Experiment: biochemical
Format: biochemical
Conditions: for IC50: MptpB, substrate DiFMUP, average of two independent experiments, sodium orthovanadate as positive control

T1 sequence (I6WXK4 whole entry, looked up): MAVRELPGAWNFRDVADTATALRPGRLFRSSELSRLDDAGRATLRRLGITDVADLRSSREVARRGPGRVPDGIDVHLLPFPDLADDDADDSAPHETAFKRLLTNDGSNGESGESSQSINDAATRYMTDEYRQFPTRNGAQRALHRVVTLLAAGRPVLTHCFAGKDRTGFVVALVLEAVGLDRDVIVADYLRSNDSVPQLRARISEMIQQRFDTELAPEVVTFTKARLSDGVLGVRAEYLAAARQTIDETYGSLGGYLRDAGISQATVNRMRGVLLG

SMILES | IC50 | inhibitory activity against MptpB (result in words)
COc1cc(O)c2c(c1O)C(c1cc(O)c3c(c1O)C(=O)C1=C(CC(O)C(C)(O)C1)C3=O)C1CC(C)(O)C(O)C(O)C1C2=O (stereo not shown) [Compound 1, alterporriol S] | 64.7 µM | –
COc1cc(O)c2c(c1)C(=O)c1cc(C)c(O)c(-c3c(OC)cc4c(c3O)C(=O)C3=C(C4=O)[C@@H](O)[C@](C)(O)[C@H](O)[C@H]3O)c1C2=O [Compound 2, (+)-aS-alterporriol C] | 8.7 µM | strong inhibitory activity
[Na+].[Na+].[Na+].[O]=[V]([O-])([O-])[O-] [Control, sodium orthovanadate, reference compound] | 0.05 µM | –
